Legend:
[1] = target: T1, ARID4B (Homo sapiens, UniProt Q4LE39); experiment: Cellular thermal shift assay (CETSA), endogenous ARID4B in MCF7 cells; format: cell-based; details: 10 μM, 2 h, 49-52° C. without compound
T1 construct: endogenous in cells; host or cells: MCF7
T1 sequence (Q4LE39 1-1312): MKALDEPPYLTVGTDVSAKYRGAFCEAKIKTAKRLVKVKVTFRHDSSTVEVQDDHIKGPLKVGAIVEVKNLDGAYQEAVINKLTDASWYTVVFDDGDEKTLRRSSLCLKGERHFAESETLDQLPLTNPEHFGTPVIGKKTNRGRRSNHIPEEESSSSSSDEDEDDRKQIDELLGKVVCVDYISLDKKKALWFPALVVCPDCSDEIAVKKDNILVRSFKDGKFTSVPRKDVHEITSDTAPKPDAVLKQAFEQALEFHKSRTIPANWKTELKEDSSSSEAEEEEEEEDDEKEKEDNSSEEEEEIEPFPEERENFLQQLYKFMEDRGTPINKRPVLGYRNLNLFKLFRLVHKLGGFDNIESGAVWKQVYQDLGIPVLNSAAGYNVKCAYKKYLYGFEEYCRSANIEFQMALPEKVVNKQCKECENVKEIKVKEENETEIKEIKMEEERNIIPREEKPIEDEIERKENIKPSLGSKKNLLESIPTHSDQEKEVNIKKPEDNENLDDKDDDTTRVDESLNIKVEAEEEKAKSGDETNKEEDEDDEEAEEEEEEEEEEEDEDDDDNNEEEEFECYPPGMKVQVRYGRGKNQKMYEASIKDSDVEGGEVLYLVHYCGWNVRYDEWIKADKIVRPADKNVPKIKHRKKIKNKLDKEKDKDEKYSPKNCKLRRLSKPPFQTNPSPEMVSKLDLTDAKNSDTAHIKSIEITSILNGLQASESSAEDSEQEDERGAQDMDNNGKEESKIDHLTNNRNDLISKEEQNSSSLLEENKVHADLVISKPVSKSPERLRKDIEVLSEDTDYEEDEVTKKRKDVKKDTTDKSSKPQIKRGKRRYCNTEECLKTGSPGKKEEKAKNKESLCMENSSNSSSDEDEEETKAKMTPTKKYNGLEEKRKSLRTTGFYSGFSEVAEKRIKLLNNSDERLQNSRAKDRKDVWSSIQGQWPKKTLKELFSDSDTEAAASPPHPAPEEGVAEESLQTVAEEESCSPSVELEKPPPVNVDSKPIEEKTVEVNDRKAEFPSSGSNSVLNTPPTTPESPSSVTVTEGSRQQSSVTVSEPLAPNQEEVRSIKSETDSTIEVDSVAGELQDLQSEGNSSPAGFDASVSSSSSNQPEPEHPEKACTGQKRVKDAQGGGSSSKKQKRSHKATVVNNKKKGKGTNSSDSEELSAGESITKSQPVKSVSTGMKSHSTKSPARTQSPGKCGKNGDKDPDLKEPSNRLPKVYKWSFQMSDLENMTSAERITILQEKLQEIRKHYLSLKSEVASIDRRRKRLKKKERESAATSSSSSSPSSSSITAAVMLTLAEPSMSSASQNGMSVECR
Description: (§1) (B-C) show cells expressing HA-ARID4B (C) or HA-ARID4BIC (D) treated or not with ARD150 (10 μM) for 2 h were used for CESTA. […] (D-E) show cells expressing HA-ARID4B (D) or Flag-ARID4A (E) treated or not with RWR-18 (10 μM) for 2 h were used for CESTA. […] Data are means±SEM from three experiments. *P<0.05, **P<0.01, ns, not significant.
(§2) Using CETSA (cellular thermal shift assay) to examine whether ARD150 or RWR-18 binds to ARID4B, MCF7 cells treated or not with ARD150 or RWR-18 for 2 h were collected, followed by heating at 46, 49, 52, 55, and 58° C. to denature and precipitate ARID4B protein, cell lysis, removal of cell debris and aggregates by centrifugation, and finally detection of remaining thermostable ARID4B protein by western blot. The ARID4B aggregation temperatures without ARD150 were determined to be 49-52° C., but shifted to 52-55° C. after treatment with ARD150 and even more so with RWR-18 (FIG. 15A-D). To determine whether ARD150 and RWR-18 targets the chromodomain of ARID4B, CESTA was performed using chromodomain deletion mutant (ARID4BAC). HEK-293T cells expressing HA-ARID4B or HA-ARID4BAC were treated or not with ARD150 (10 μM) for 2 h and processed for CESTA.

[2] = tested on: T47D; experiment: MTT proliferation assay, T47D; format: cell-based; details: data not shown
[3] = target: T2, HA-ARID4B (Homo sapiens, UniProt Q4LE39); experiment: CETSA in HEK-293T cells expressing HA-ARID4B; format: cell-based; details: 10 μM, 2 h
T2 construct: transfected with vector, full-length ARID4B or ARID4B deletion mutants; expressed in transfected cells; host or cells: HEK-293T
T2 sequence (Q4LE39 1-1312): T1 sequence (Q4LE39 1-1312)
Description: as §1, §2

[4] = tested on: MCF7 Y537S; experiment: MTT proliferation assay, MCF7 Y537S; format: cell-based; details: data not shown
Description: (§3) To determine the EC50 of ARD150 and two of its derivatives in breast cancer, MCF7, ZR75-1 (wild-type ERα+), and MCF7 Y537S (constitutively activate ERα mutant) and their ARID4B KO counterparts were seeded in 24 well plate and treated with the various concentrations (0, 0.1, 1, 5, 10, 20, 40, 60, and 100 μM) of ARD150 and RWR-18 for 14 days. […] Knockout of ARID4B renders cells less sensitive to these compounds.

[5] = tested on: MCF10A; experiment: Proliferation assay, non-tumorigenic MCF10A; format: cell-based; details: MCF10A expresses lower ARID4B
[6] = target: T3, ARID4B chromodomain (Homo sapiens, UniProt Q4LE39); experiment: Isothermal titration calorimetry (ITC); format: binding
T3 sequence (Q4LE39 572-624 limits assumed): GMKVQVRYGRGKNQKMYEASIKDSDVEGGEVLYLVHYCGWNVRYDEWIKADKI
Text: It was then undertaken to identify compounds that inhibit ARID4B, focusing on the chromodomain therein. First, the structure of ARID4B was created using a homology model based on an optimized computational platform that combines the iterative threading assembly refinement (TASSER) and SWISSMODEL (FIG. 14A-B). Protein structure prioritization was based on protein-model accuracy, quantitatively measured C-score, TM-score and RMSD value. Next, in silico screening of 160,000 drug-like diverse small molecules from MOE's chemical repository combined with biophysical characterization including isothermal calorimetry (ITC, FIG. 16) and circular dichroism (data not shown) of identified compound ARD150 with recombinant ARID4B chromodomain informed chemical synthesis of diverse scaffolds.
Isothermal titration calorimetry (ITC) was used to confirm the binding of ARD150 and its derivative RWR18 (derived from ARD150 with slight structural modifications) to ARID4B chromodomain and to determine the Kd, reaction stoichiometry (n), enthalpy (ΔH) and entropy (ΔS). […] This highlights to power of rational design to tune the target engagement and affinity of ligands.

[7] = tested on: MCF7; experiment: MTT proliferation assay, MCF7; format: cell-based; details: Homo sapiens, MCF7, 336 h, 14 days
Description: as §3

SMILES	ARID4B aggregation temperatures [1]	EC50 for T47D [2]	shift of aggregation temperatures of HA-ARID4B [3]	EC50 for MCF7 Y537S [4]	effect on non-tumorigenic MCF10A [5]	Kd [6]	EC50 [7]
COc1ccc(C(=O)NCCCN2CCOCC2)cc1OC [ARD150]	52-55 °C	comparable to that of MCF7	resulted in a shift of aggregation temperatures	comparable to that of MCF7	insensitive	3.5 µM	13.8 µM
O=C(COc1ccc(OCc2ccccc2)cc1)NCCCN1CCOCC1 [RWR-18]	–	comparable to that of MCF7	resulted in a shift of aggregation temperatures	comparable to that of MCF7	insensitive	1 µM	7.9 µM
